Measured values taken from US20250144094A1 (Erasca, Inc., priority 2021, published 2025).

Molecular target: Recombinant human ULK1 (1-649) (Homo sapiens (Human), UniProt O75385)
Experiment: ULK1 ADP Glo kinase activity assay, new method (ULKtide peptide substrate)
Details: 25° C., 40 minutes, read-out: ULK1 biochemical IC50
Outline: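 GST-tagged human ULK1 (1-649) from Sf9 cells was reacted with ULKtide peptide and ATP for 40 min at 25 °C across 12-point compound dilutions from 10 μM. ADP formed was quantified by ADP-Glo luminescence; IC50 came from four-parameter fits relative to DMSO controls.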

Sequence of Recombinant human ULK1 (1-649) (O75385 1-649): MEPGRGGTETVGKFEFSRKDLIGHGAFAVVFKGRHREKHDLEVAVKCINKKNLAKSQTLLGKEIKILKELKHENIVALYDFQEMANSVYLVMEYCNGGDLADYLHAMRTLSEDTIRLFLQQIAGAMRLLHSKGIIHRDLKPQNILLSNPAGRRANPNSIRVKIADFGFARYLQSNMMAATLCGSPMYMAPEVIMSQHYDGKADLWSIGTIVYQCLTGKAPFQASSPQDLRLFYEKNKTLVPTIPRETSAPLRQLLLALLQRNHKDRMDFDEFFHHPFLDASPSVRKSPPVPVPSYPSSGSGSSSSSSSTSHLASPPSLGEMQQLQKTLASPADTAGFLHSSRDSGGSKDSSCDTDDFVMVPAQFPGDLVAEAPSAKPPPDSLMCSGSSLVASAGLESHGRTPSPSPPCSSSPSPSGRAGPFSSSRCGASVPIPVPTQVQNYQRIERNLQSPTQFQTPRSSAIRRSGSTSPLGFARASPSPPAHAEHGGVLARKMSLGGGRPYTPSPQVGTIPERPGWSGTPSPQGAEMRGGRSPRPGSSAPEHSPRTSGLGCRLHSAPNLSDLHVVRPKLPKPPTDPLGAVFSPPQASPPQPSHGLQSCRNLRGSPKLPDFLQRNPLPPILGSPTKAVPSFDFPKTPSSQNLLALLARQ

| SMILES | IC50 [nM] |
| --- | --- |
| CCN1CCc2cc(Nc3ncc(C(F)(F)F)c(-c4cc5c(s4)C(=O)N(C4CCC4)CCS5(=O)=O)n3)c(Cl)cc2C1 [Example 203, 7-(2-((7-chloro-2-ethyl-1,2,3,4-tetrahydroisoquinolin-6-yl)amino)-5-(trifluoromethyl)pyrimidin-4-yl)-4-cyclobutyl-3,4-dihydrothieno[2,3-f][1,4]thiazepin-5(2H)-one 1,1-dioxide] | ≤ 5 |
| CCN1CCS(=O)(=O)c2cc(-c3nc(Nc4cc5c(cc4Cl)CCNC5)ncc3C(F)(F)F)sc2C1=O [Example 204, 7-(2-((6-chloro-1,2,3,4-tetrahydroisoquinolin-7-yl)amino)-5-(trifluoromethyl)pyrimidin-4-yl)-4-ethyl-3,4-dihydrothieno[2,3-f][1,4]thiazepin-5(2H)-one 1,1-dioxide] | ≤ 5 |
| Cc1cc2c(cc1Nc1ncc(C(F)(F)F)c(-c3cc4c(s3)C(=O)N(C)CCS4(=O)=O)n1)CCN(CC1CC1)C2 [Example 205, 7-(2-((2-(cyclopropylmethyl)-7-methyl-1,2,3,4-tetrahydroisoquinolin-6-yl)amino)-5-(trifluoromethyl)pyrimidin-4-yl)-4-methyl-3,4-dihydrothieno[2,3-f][1,4]thiazepin-5(2H)-one 1,1-dioxide] | ≤ 5 |
| CN1CCS(=O)(=O)c2cc(-c3nc(Nc4ccc(N5CCN(CC6CC6)CC5)cc4Cl)ncc3C(F)(F)F)sc2C1=O [Example 206, 7-(2-((2-chloro-4-(4-(cyclopropylmethyl)piperazin-1-yl)phenyl)amino)-5-(trifluoromethyl)pyrimidin-4-yl)-4-methyl-3,4-dihydrothieno[2,3-f][1,4]thiazepin-5(2H)-one 1,1-dioxide] | ≤ 5 |
| CCc1cc2c(cc1Nc1ncc(C(F)(F)F)c(-c3cc4c(s3)C(=O)N(C3CC3)CCS4(=O)=O)n1)CCNC2 [Example 207, 4-cyclopropyl-7-(2-((7-ethyl-1,2,3,4-tetrahydroisoquinolin-6-yl)amino)-5-(trifluoromethyl)pyrimidin-4-yl)-3,4-dihydrothieno[2,3-f][1,4]thiazepin-5(2H)-one 1,1-dioxide] | ≤ 5 |
| CCc1cc2c(cc1Nc1ncc(C(F)(F)F)c(-c3cc4c(s3)C(=O)N(C3CCC3)CCS4(=O)=O)n1)CCNC2 [Example 208, 4-cyclobutyl-7-(2-((7-ethyl-1,2,3,4-tetrahydroisoquinolin-6-yl)amino)-5-(trifluoromethyl)pyrimidin-4-yl)-3,4-dihydrothieno[2,3-f][1,4]thiazepin-5(2H)-one 1,1-dioxide] | ≤ 5 |
| O=C1c2sc(-c3nc(Nc4cc5c(cc4C4CC4)CNCC5)ncc3C(F)(F)F)cc2S(=O)(=O)CCN1C1CC1 [Example 209, 4-cyclopropyl-7-(2-((7-cyclopropyl-1,2,3,4-tetrahydroisoquinolin-6-yl)amino)-5-(trifluoromethyl)pyrimidin-4-yl)-3,4-dihydrothieno[2,3-f][1,4]thiazepin-5(2H)-one 1,1-dioxide] | ≤ 5 |
| O=C1c2sc(-c3nc(Nc4cc5c(cc4Cl)CNCC5)ncc3C(F)(F)F)cc2S(=O)(=O)CCN1C1COC1 [Example 210, 7-(2-((7-chloro-1,2,3,4-tetrahydroisoquinolin-6-yl)amino)-5-(trifluoromethyl)pyrimidin-4-yl)-4-(oxetan-3-yl)-3,4-dihydrothieno[2,3-f][1,4]thiazepin-5(2H)-one 1,1-dioxide] | ≤ 5 |
| CCN1CCc2cc(Cl)c(Nc3ncc(C(F)(F)F)c(-c4cc5c(s4)C(=O)N(C)CCS5(=O)=O)n3)cc2C1 [Example 211, 7-(2-((6-chloro-2-ethyl-1,2,3,4-tetrahydroisoquinolin-7-yl)amino)-5-(trifluoromethyl)pyrimidin-4-yl)-4-methyl-3,4-dihydrothieno[2,3-f][1,4]thiazepin-5(2H)-one 1,1-dioxide] | 10 to 50 |
| CCc1cc2c(cc1Nc1ncc(C(F)(F)F)c(-c3cc4c(s3)C(=O)N(C)CCS4(=O)=O)n1)CNCC2 [Example 212, 7-(2-((6-ethyl-1,2,3,4-tetrahydroisoquinolin-7-yl)amino)-5-(trifluoromethyl)pyrimidin-4-yl)-4-methyl-3,4-dihydrothieno[2,3-f][1,4]thiazepin-5(2H)-one 1,1-dioxide] | ≤ 5 |
| CCN1CCc2cc(Nc3ncc(C(F)(F)F)c(-c4cc5c(s4)C(=O)N(C4CC4)CCS5(=O)=O)n3)c(Cl)cc2C1 [Example 213, 7-(2-((7-chloro-2-ethyl-1,2,3,4-tetrahydroisoquinolin-6-yl)amino)-5-(trifluoromethyl)pyrimidin-4-yl)-4-cyclopropyl-3,4-dihydrothieno[2,3-f][1,4]thiazepin-5(2H)-one 1,1-dioxide] | ≤ 5 |
| O=C1c2sc(-c3nc(Nc4cc5c(cc4Cl)CCNC5)ncc3C(F)(F)F)cc2S(=O)(=O)CCN1CC(F)(F)F [Example 214, 7-(2-((6-chloro-1,2,3,4-tetrahydroisoquinolin-7-yl)amino)-5-(trifluoromethyl)pyrimidin-4-yl)-4-(2,2,2-trifluoroethyl)-3,4-dihydrothieno[2,3-f][1,4]thiazepin-5(2H)-one 1,1-dioxide] | ≤ 5 |
| O=C1c2sc(-c3nc(Nc4cc5c(cc4C4CC4)CNCC5)ncc3C(F)(F)F)cc2S(=O)(=O)CCN1CC(F)(F)F [Example 215, 7-(2-((7-cyclopropyl-1,2,3,4-tetrahydroisoquinolin-6-yl)amino)-5-(trifluoromethyl)pyrimidin-4-yl)-4-(2,2,2-trifluoroethyl)-3,4-dihydrothieno[2,3-f][1,4]thiazepin-5(2H)-one 1,1-dioxide] | ≤ 5 |
| Cc1cc2c(cc1Nc1ncc(C(F)(F)F)c(-c3cc4c(s3)C(=O)N(C)CCS4(=O)=O)n1)CCN(CC1COC1)C2 [Example 216, 4-methyl-7-(2-((7-methyl-2-(oxetan-3-ylmethyl)-1,2,3,4-tetrahydroisoquinolin-6-yl)amino)-5-(trifluoromethyl)pyrimidin-4-yl)-3,4-dihydrothieno[2,3-f][1,4]thiazepin-5(2H)-one 1,1-dioxide] | ≤ 5 |
| CN1CCS(=O)(=O)c2cc(-c3nc(Nc4ccc(N5CCN(CC6COC6)CC5)cc4Cl)ncc3C(F)(F)F)sc2C1=O [Example 217, 7-(2-((2-chloro-4-(4-(oxetan-3-ylmethyl)piperazin-1-yl)phenyl)amino)-5-(trifluoromethyl)pyrimidin-4-yl)-4-methyl-3,4-dihydrothieno[2,3-f][1,4]thiazepin-5(2H)-one 1,1-dioxide] | ≤ 5 |
| O=C1c2sc(-c3nc(Nc4cc5c(cc4C4CC4)CNCC5)ncc3C(F)(F)F)cc2S(=O)(=O)CCN1C1CCC1 [Example 218, 4-cyclobutyl-7-(2-((7-cyclopropyl-1,2,3,4-tetrahydroisoquinolin-6-yl)amino)-5-(trifluoromethyl)pyrimidin-4-yl)-3,4-dihydrothieno[2,3-f][1,4]thiazepin-5(2H)-one 1,1-dioxide] | ≤ 5 |
| O=C1c2sc(-c3nc(Nc4cc5c(cc4C4CC4)CNCC5)ncc3C(F)(F)F)cc2S(=O)(=O)CCN1C1COC1 [Example 219, 7-(2-((7-cyclopropyl-1,2,3,4-tetrahydroisoquinolin-6-yl)amino)-5-(trifluoromethyl)pyrimidin-4-yl)-4-(oxetan-3-yl)-3,4-dihydrothieno[2,3-f][1,4]thiazepin-5(2H)-one 1,1-dioxide] | ≤ 5 |
